# Laboratory results as given in EP0986381B1, “USE OF DITERPENES LIKE HYPOESTOXIDES FOR THE MANUFACTURE OF A MEDICAMENT FOR IMMUNOSUPPRESSION, ANTICANCER AND ANTIVIRAL TREATMENT” (Immune Modulation, Inc., priority 1997, dated 1998).
# Tests used:
# [1] = tested on: cultured normal human PBMCs; experiment: Toxicity on PHA-activated normal human PBMCs, trypan blue dye exclusion; type: cell-based; conditions: 0.0001 µM - 0.5 µM, 7 days
# Procedure: PBMCs from two individuals were co-cultured in the presence of varying concentrations of JO-4 for 5 days. […] Cytotoxic T lymphocytes (CTLs) were generated from one-way MLR in the absence or presence of JO-4 for 5-7 days. At the end of culture, CTLs were harvested and tested in a four hour ^51Cr-release assay against activated lymphocytes which were used as stimulators in the one-way MLR. […] Human PBMCs were cultured with 5 µg/ml LPS in the absence or presence of 1.0 µg/ml JO-4 in 24-well microtiter plates for 24 hours. At the end of culture, supernatants were harvested and tested by EIA for the presence of IL-1β, TNF-α, and IL-6. […] PBMCs from two individuals were co-cultured in the absence or presence of varying concentrations of JO-4A for 5 days. […] Antiviral effects of JO-4 on HSV-2 were determined as described in Figure 16A. • Figure 17A and 17B show the results of toxicity testing of JO-4 and JO-4A on normal, uninfected African green monkey kidney cells (CV-1), respectively. […] Cytotoxicity was determined by colorimetric (MTT) assay.
# Peripheral Blood Mononuclear cells (PBMCs): Heparinized venous blood was obtained from healthy adult volunteers and PBMCs were separated by centrifugation over Ficoll-Hypaque (Pharmacia Biotech, Piscataway, NJ). […] Cell viability was assessed by trypan blue dye exclusion test and the cell number was adjusted to required concentration.
# [2] = tested on: one-way MLR-generated human T-lymphocyte-mediated cytolysis; experiment: Cytolysis by CTLs generated in one-way MLR, 51Cr-release assay; type: cell-based; conditions: T-cell, 1.0 µg/mL JO-4 during 5-7 day one-way MLR, four hour 51Cr-release, read-out: inhibition of the lytic capability of cytotoxic T-cells
# Excerpt: The "one-way MLR" was set up in tissue culture flasks with mononuclear cells from two different donors as in the "two-way MLR" described above. However, in "one-way MLR", one of the two mononuclear leukocyte populations was rendered incapable of proliferation by treatment with mitomycin C, an antimitotic drug, prior to culture. In this "one-way MLR", the treated cells served exclusively as stimulators and the untreated cells, still capable of proliferation, served as the responders. The responder cells, during a 5-7 day culture period, expressed the CD8+ phenotype but not the CD4+. These CD8+ cells served exclusively as cytolytic T lymphocytes (CTLs) which lyse target cells from the same individual as the original stimulator cell population. In transplantation, these MHC-restricted cytotoxic CD8+ T-cells lyse MHC disparate donor tissue targets, leading to graft rejection (Abbas, A.K., eds., 1994, 2nd ed., Cellular and Molecular Immunology, W.B. Saunders Co., USA; Imagawa, D.K., et al., in Aggarwal, B.B., et al., eds., 1995, Human Cytokines: Their role in Disease and Therapy, Blackwell Science, Inc., Cambridge, MA).
# Mononuclear cells of one donor were first treated with mitomycin C (Sigma Chem. Co., St. Louis, MO) (50 µg/50 x 10^6 cells) in 15 mL tubes wrapped in aluminum foil and incubated in a 37°C water bath for 1 hr. […]
SMILES,toxic effect on cultured human PBMC [1],inhibition at 1 µg/mL [2]
C=C1C(=O)CC2CC3OC3(C)CCC3OC3(C)CC(O)C1C2(C)C (centres unmarked) [JO-4A],no toxic effect,
"C=C1C(=O)C[C@H]2C[C@@H]3O[C@@]3(C)CC[C@@H]3O[C@@]3(C)C[C@@H](OC(C)=O)[C@H]1C2(C)C [JO-4, hypoestoxide]",,82%
